{"source": "ChEMBL document CHEMBL1143561", "about": "“Virtual docking approaches to protein kinase B inhibition” (J Med Chem, 2005)", "target": "RAC-alpha serine/threonine-protein kinase (Homo sapiens, UniProt P31749)", "sequence (P31749 whole entry)": "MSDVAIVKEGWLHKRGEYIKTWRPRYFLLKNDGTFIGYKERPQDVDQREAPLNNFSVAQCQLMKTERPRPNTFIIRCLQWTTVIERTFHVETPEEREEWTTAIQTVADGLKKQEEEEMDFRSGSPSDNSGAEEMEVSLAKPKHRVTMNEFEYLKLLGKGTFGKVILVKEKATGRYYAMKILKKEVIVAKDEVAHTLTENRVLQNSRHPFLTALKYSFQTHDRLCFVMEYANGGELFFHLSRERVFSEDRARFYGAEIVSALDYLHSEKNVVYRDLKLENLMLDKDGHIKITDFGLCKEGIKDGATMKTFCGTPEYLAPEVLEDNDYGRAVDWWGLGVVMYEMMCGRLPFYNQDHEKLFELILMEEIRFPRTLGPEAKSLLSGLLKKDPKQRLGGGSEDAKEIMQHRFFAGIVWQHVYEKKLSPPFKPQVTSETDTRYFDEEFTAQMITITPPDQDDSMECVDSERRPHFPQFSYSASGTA", "assay": "Inhibition of protein kinase B alpha (Akt1) in fluorescent enzymatic assay"}
{"smiles": "CC1=C(C#N)c2nc(N)c(C#N)c(C)c2/C1=C/c1ccc(-c2cccc(C(=O)O)c2)o1", "values": [{"measurement": "IC50", "result": 60.2, "unit": "µM"}]}
